Test results taken from patent publication US20250145606A1 (Arcus Biosciences, Inc., priority 2023, published 2025).

Columns and labels:
[1] = system: Phospho-KIT (Y703) in M07e cells; experiment: Phospho-KIT (Y703) cellular assay in M07e cells; format: cell-based; conditions: M-07e; Phospho-KIT (Y703), M07e cells; read-out: M07e Cell IC50
Experimental: Phospho-KIT (Y703) Cellular Assay in M07e Cells
The day prior to assay, M07e cells (DSMZ, catalog #ACC 104) were serum starved. Cells were centrifuged and cell pellet resuspended in OptiMEM (Gibco, catalog #31985062) to a density of 1×10^6-2.5×10^6 cells per mL. Cells were then incubated overnight at 5% CO2 and 37° C. in an appropriately sized flask. On the day of the experiment, an 11 point, half log titration of test compound was pre-dispensed into 96-well round bottom polypropylene plates (Corning, catalog #3365). The serum starved M07e cells were centrifuged and resuspended to a cell density of 1×10^6 cells per mL with DPBS (Gibco, catalog #14190-144). Live/Dead Green Fixable viability dye (Invitrogen, catalog #L34970) was added as 1 μL/1 mL of cell suspension. Cells were then incubated in the dark at 4° C. for 30 min. Cells were washed by centrifugation and resuspension with DPBS+0.5% BSA (Gemini Bio Products, catalog #700110/100, 30% BSA solution). Cells were resuspended, separated into two equal volumes and again centrifuged. Cell pellets were resuspended with OptiMEM™ to a cell density of 1×10^6 cells per mL. Cells were then added to the appropriate compound plate at 100,000 cells per well in 100 μL and mixed. Plates were incubated at 5% CO2 and 37° C. for 50 min. Stem Cell Factor, SCF (R&D Systems, #255-SC/CF) was diluted in OptiMEM to 1 μg/mL and added to all wells as 10 μL for a final concentration of 90.9 ng/mL. Plates were incubated at 5% CO2 and 37° C. for 10 min. Incubation was stopped by addition of 110 μL 4% paraformaldehyde solution in PBS (Life Technologies, catalog #J19943.K2). Plates were incubated at rt for at least 15 min. Plates were then centrifuged and supernatant removed by flicking. Cells were washed once by resuspension in 200 μL DPBS+0.5% BSA, centrifuged, and supernatant removed by flicking. Cells were resuspended in 100 μL 1X Permeabilization buffer (Invitrogen, catalog #88882400) and plates incubated at rt for 30 min. Plates were centrifuged, supernatant removed by flicking, and cells resuspended in 50 μL primary antibody, anti-phospho-c-KIT (Tyr703) (Cell Signaling, catalog #3073), diluted to 1 μg/mL with permeabilization buffer. Plates were incubated at rt for 1 h. Plates were centrifuged, supernatant removed, and cells resuspended with 200 μL DPBS+0.5% BSA. Plates were again centrifuged, supernatant removed by flicking, and cells resuspended in 100 μL secondary antibody, goat anti-rabbit AlexaFluor647 (AF647) (Invitrogen, catalog #A21244) diluted to 1 μg/mL with DPBS+0.5% BSA. Plates were incubated at rt for 30 min. followed by centrifugation, supernatant removal, and cell resuspension with 200 μL DPBS+0.5% BSA. Cells were washed again by centrifugation, supernatant removal, and cell resuspension with 200 μL DPBS+0.5% BSA. Samples were then read by flow cytometry. The Forward: Side scatter plot was gated and that population was gated for live cells based on the Live/Dead Green staining. The geometric mean of AF647 of the live cell population was recorded. Percentage maximum activity in each test well was calculated based on DMSO (100% activity) and positive control treated cell wells (0% activity). The potencies (IC50 values) of test compounds were determined using a standard 4-parameter non-linear regression fit.

c-Kit = c-Kit (Homo sapiens (Human), UniProt P10721); experiment: Inhibition of c-Kit kinase activity (HTRF KinEASE-TK); format: biochemical; conditions: biochemical, HTRF KinEASE-TK
Sequence of c-Kit (P10721 26-976): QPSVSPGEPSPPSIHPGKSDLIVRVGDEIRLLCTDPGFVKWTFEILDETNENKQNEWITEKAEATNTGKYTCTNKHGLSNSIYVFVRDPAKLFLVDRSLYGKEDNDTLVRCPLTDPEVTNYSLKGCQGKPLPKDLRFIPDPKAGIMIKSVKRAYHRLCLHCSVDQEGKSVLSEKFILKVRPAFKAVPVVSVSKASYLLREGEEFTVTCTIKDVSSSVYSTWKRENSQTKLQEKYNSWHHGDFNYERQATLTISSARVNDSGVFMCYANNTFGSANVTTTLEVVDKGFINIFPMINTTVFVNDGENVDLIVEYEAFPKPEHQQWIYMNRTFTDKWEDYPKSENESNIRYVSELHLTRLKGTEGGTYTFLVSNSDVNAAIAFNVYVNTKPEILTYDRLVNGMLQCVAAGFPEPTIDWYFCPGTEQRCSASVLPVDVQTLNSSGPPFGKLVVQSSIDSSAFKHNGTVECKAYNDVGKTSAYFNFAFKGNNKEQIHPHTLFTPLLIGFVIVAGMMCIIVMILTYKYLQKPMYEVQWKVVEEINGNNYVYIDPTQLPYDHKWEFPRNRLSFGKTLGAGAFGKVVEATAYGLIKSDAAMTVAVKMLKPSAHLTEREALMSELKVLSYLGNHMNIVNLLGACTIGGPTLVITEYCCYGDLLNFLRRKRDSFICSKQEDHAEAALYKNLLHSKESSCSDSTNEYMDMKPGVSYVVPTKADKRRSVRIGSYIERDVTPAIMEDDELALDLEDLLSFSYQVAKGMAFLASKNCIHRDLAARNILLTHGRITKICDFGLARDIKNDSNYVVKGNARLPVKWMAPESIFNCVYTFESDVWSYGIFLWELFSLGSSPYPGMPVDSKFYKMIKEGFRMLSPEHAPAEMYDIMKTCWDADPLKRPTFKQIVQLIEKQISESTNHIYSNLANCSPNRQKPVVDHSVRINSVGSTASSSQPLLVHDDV
In short: (§1)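 Human kinases were preincubated 1 h at rt with a 22-point 1:2 compound titration, then run 120 min at rt with biotinylated TK peptide and ATP (2× mix: c-Kit 16 μM, PDGFRα 1 μM, PDGFRβ 40 μM, CSF1R 20 μM). Phosphopeptide was read by HTRF TR-FRET (665/620 nm), and IC50s came from 4-parameter fits.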

CSF1R = CSF1R (Homo sapiens (Human), UniProt P07333); experiment: Inhibition of CSF1R kinase activity (HTRF KinEASE-TK); conditions: biochemical, HTRF KinEASE-TK
Sequence of CSF1R (P07333 20-972): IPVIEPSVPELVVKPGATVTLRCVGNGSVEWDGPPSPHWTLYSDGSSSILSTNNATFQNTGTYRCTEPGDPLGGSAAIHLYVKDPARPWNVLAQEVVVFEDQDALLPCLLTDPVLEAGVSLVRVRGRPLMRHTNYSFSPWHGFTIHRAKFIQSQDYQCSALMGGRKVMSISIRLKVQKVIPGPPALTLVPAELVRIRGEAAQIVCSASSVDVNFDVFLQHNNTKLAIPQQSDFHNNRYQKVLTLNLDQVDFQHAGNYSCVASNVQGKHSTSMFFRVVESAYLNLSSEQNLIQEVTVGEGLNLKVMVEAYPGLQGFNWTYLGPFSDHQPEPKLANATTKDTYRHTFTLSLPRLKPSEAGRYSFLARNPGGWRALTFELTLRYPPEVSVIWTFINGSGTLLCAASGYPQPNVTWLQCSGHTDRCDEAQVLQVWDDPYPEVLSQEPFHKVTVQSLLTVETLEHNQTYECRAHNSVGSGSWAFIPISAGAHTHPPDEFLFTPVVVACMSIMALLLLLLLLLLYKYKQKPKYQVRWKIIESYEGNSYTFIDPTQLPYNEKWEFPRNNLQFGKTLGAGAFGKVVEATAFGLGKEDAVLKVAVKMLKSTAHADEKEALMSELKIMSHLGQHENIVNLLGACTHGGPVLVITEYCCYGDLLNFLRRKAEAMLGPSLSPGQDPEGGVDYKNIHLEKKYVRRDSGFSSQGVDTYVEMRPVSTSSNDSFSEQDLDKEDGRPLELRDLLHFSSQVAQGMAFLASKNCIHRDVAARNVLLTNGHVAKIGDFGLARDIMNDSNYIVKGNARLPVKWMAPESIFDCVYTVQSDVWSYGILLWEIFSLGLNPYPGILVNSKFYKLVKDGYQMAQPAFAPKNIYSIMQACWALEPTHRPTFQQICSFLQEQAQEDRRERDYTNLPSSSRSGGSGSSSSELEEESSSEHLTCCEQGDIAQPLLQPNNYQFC
In short: as §1

PDGFRβ = PDGFRβ (Homo sapiens (Human), UniProt P09619); experiment: Inhibition of PDGFRβ kinase activity (HTRF KinEASE-TK); conditions: biochemical, HTRF KinEASE-TK
Sequence of PDGFRβ (P09619 33-1106): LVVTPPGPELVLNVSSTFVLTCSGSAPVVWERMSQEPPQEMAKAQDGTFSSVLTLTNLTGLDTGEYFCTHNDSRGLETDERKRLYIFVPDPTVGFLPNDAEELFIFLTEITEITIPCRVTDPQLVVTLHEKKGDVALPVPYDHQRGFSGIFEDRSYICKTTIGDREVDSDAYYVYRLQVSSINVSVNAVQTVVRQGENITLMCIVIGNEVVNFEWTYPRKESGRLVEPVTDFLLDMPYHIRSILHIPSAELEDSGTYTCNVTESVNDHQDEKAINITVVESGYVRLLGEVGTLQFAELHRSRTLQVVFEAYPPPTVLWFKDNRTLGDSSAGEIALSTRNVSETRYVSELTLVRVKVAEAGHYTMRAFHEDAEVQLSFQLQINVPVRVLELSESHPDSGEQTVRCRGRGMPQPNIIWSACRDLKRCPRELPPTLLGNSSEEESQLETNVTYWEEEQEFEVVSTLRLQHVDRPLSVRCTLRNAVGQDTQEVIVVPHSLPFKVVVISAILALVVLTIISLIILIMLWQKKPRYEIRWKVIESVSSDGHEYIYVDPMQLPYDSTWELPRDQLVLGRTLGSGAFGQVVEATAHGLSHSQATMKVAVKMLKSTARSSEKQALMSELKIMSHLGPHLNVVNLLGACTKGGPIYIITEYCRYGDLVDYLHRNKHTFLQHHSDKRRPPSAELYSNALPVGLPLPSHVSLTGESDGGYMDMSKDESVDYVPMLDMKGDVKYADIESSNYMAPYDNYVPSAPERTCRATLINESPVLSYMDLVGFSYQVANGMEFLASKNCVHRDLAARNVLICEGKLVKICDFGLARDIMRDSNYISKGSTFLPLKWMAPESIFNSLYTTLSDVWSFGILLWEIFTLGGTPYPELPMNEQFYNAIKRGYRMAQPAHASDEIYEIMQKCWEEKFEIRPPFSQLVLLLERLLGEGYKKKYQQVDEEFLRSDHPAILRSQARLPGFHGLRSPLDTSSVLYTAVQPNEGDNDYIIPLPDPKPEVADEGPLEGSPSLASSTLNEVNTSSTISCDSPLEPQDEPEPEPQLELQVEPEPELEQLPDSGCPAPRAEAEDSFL
In short: as §1

PDGFRα = PDGFRα (Homo sapiens (Human), UniProt P16234); experiment: Inhibition of PDGFRα kinase activity (HTRF KinEASE-TK); conditions: biochemical, HTRF KinEASE-TK
Sequence of PDGFRα (P16234 24-1089): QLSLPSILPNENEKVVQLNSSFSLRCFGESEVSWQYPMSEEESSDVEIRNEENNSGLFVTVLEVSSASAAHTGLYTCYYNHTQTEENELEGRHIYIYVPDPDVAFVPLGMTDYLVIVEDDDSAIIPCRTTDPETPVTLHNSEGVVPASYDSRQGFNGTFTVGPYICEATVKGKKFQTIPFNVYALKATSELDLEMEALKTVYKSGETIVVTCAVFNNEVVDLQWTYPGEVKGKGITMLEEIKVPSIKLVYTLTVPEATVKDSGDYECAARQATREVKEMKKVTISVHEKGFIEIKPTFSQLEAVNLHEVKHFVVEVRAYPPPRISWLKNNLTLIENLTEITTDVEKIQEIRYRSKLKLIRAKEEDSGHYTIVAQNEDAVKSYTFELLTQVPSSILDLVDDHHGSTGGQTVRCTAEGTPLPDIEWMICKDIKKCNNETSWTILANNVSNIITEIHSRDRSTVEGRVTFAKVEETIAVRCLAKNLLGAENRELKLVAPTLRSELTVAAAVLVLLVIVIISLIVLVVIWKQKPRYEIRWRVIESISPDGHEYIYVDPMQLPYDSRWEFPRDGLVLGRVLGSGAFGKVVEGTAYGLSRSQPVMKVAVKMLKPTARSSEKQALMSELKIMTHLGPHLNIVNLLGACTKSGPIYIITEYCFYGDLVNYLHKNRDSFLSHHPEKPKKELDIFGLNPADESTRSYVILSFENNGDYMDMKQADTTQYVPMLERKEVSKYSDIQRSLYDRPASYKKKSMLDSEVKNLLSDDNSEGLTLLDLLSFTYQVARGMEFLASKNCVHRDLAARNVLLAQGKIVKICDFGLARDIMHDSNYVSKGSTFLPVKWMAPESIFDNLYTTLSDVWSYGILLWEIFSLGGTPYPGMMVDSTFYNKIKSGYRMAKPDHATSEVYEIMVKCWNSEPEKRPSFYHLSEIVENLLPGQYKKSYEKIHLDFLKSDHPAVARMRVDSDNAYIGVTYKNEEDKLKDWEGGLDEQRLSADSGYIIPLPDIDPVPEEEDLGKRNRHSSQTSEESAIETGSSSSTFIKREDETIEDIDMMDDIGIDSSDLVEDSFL
In short: as §1

IC50 [1] [nM]	IC50 (c-Kit) [nM]	IC50 (CSF1R) [nM]	IC50 (PDGFRβ) [nM]	IC50 (PDGFRα) [nM]	Compound
100 to 1000	100 to 1000	–	–	–	Cc1ncc(C(=O)Nc2cc(C(=O)NCc3cccnc3)c(F)cc2C)s1 [Example 12, N-(4-Fluoro-2-methyl-5-((pyridin-3-ylmethyl)carbamoyl)phenyl)-2-methylthiazole-5-carboxamide]
< 100	< 100	> 1000	–	–	Cc1ncc(C(=O)Nc2cc(C(=O)Nc3cnc(OC(F)F)cn3)c(F)cc2C)s1 [Example 15, N-[5-[[5-(Difluoromethoxy)pyrazin-2-yl]carbamoyl]-4-fluoro-2-methylphenyl]-2-methyl-1,3-thiazole-5-carboxamide]
100 to 1000	< 100	> 1000	–	–	Cc1ncc(C(=O)Nc2cc(C(=O)Nc3ccnc(C#N)c3)c(F)cc2C)s1 [Example 18, N-[5-[(2-Cyanopyridin-4-yl)carbamoyl]-4-fluoro-2-methylphenyl]-2-methyl-1,3-thiazole-5-carboxamide]
100 to 1000	100 to 1000	> 1000	–	–	Cc1ncc(C(=O)Nc2cc(C(=O)Nc3ccc(C#N)cn3)c(F)cc2C)s1 [Example 19, N-[5-[(5-Cyanopyridin-2-yl)carbamoyl]-4-fluoro-2-methylphenyl]-2-methyl-1,3-thiazole-5-carboxamide]
100 to 1000	< 100	> 1000	–	–	COc1cnc(NC(=O)c2cc(NC(=O)c3cnc(C)s3)c(C)cc2F)cn1 [Example 23, N-[4-Fluoro-5-[(5-methoxypyrazin-2-yl)carbamoyl]-2-methylphenyl]-2-methyl-1,3-thiazole-5-carboxamide]
< 100	< 100	> 1000	–	–	CCc1cnc(NC(=O)c2cc(NC(=O)c3cnc(C)s3)c(C)cc2F)cn1 [Example 27, N-[5-[(5-ethylpyrazin-2-yl)carbamoyl]-4-fluoro-2-methylphenyl]-2-methyl-1,3-thiazole-5-carboxamide]
< 100	< 100	> 1000	–	–	Cc1ncc(C(=O)Nc2cc(C(=O)Nc3cnc(C(C)C)cn3)c(F)cc2C)s1 [Example 28, N-[4-fluoro-2-methyl-5-[(5-propan-2-ylpyrazin-2-yl)carbamoyl]phenyl]-2-methyl-1,3-thiazole-5-carboxamide]
< 100	< 100	> 1000	–	–	Cc1ncc(C(=O)Nc2cc(C(=O)Nc3cnc(C(F)(F)F)cn3)c(F)cc2C)s1 [Example 29, N-[4-fluoro-2-methyl-5-[[5-(trifluoromethyl)pyrazin-2-yl]carbamoyl]phenyl]-2-methyl-1,3-thiazole-5-carboxamide]
100 to 1000	< 100	> 1000	–	–	Cc1ncc(C(=O)Nc2cc(C(=O)Nc3cncc(C(F)(F)F)n3)c(F)cc2C)s1 [Example 33, N-[4-fluoro-2-methyl-5-[[6-(trifluoromethyl)pyrazin-2-yl]carbamoyl]phenyl]-2-methyl-1,3-thiazole-5-carboxamide]
< 100	< 100	> 1000	–	–	Cc1ncc(C(=O)Nc2cc(C(=O)Nc3cncc(CC4CC4)n3)c(F)cc2C)s1 [Example 34, N-[5-[[6-(cyclopropylmethyl)pyrazin-2-yl]carbamoyl]-4-fluoro-2-methylphenyl]-2-methyl-1,3-thiazole-5-carboxamide]
< 100	< 100	> 1000	–	–	Cc1ncc(C(=O)Nc2cc(C(=O)Nc3cncc(C4CC4)c3)c(F)cc2C)s1 [Example 53, N-[5-[(5-cyclopropylpyridin-3-yl)carbamoyl]-4-fluoro-2-methylphenyl]-2-methyl-1,3-thiazole-5-carboxamide]

Continued, compound first:

Compound	IC50 [1] [nM]	IC50 (c-Kit) [nM]	IC50 (CSF1R) [nM]	IC50 (PDGFRβ) [nM]	IC50 (PDGFRα) [nM]
Cc1ncc(C(=O)Nc2cc(C(=O)Nc3ccnc(OC(F)F)c3)c(F)cc2C)s1 [Example 21, N-[5-[[2-(Difluoromethoxy)pyridin-4-yl]carbamoyl]-4-fluoro-2-methylphenyl]-2-methyl-1,3-thiazole-5-carboxamide]	< 100	< 100	> 1000	–	–
Cc1ncc(C(=O)Nc2cc(C(=O)Nc3ccnc(C(F)F)c3)c(F)cc2C)s1 [Example 22, N-[5-[[2-(Difluoromethyl)pyridin-4-yl]carbamoyl]-4-fluoro-2-methylphenyl]-2-methyl-1,3-thiazole-5-carboxamide]	100 to 1000	< 100	> 1000	–	–
Cc1ncc(C(=O)Nc2cc(C(=O)N[C@H]3C[C@@H]3c3ccccc3)c(F)cc2C)s1 [Example 30, N-[4-Fluoro-2-methyl-5-[[(1S,2R)-2-phenylcyclopropyl]carbamoyl]phenyl]-2-methyl-1,3-thiazole-5-carboxamide]	< 100	100 to 1000	> 1000	–	–
Cc1ncc(C(=O)Nc2cc(C(=O)Nc3ccc(C(F)F)nc3)c(F)cc2C)s1 [Example 54, N-[5-[[6-(difluoromethyl)pyridin-3-yl]carbamoyl]-4-fluoro-2-methylphenyl]-2-methyl-1,3-thiazole-5-carboxamide]	< 100	< 100	–	–	–
CCc1cc(F)c(C(=O)Nc2ccc(OC3CC3)cn2)cc1NC(=O)c1cnc(N)s1 [Example 237, 2-Amino-N-[5-[(5-cyclopropyloxypyridin-2-yl)carbamoyl]-2-ethyl-4-fluorophenyl]-1,3-thiazole-5-carboxamide]	–	100 to 1000	> 1000	> 1000	> 1000
Cc1c(F)cc(C(=O)Nc2ccc(OC3CC3)cn2)cc1NC(=O)c1cnc(N)s1 [Example 243, 2-Amino-N-[5-[(5-cyclopropyloxypyridin-2-yl)carbamoyl]-3-fluoro-2-methylphenyl]-1,3-thiazole-5-carboxamide]	–	< 100	< 100	< 100	< 100
Cc1cc(F)c(C(=O)Nc2ccc(CN3CCN(C)CC3)cn2)cc1NC(=O)c1cnc(N)s1 [Example 247, 2-Amino-N-[4-fluoro-2-methyl-5-[[5-[(4-methylpiperazin-1-yl)methyl]pyridin-2-yl]carbamoyl]phenyl]-1,3-thiazole-5-carboxamide]	–	< 100	100 to 1000	100 to 1000	> 1000
Cc1cc(F)c(C(=O)Nc2ccc(CN3CCOCC3)cn2)cc1NC(=O)c1cnc(N)s1 [Example 248, 2-Amino-N-[4-fluoro-2-methyl-5-[[5-(morpholin-4-ylmethyl)pyridin-2-yl]carbamoyl]phenyl]-1,3-thiazole-5-carboxamide]	–	< 100	> 1000	> 1000	> 1000
COCCOc1ccc(NC(=O)c2cc(NC(=O)c3cnc(N)s3)c(C)cc2F)nc1 [Example 252, 2-Amino-N-[4-fluoro-5-[[5-(2-methoxyethoxy)pyridin-2-yl]carbamoyl]-2-methylphenyl]-1,3-thiazole-5-carboxamide]	–	< 100	> 1000	> 1000	> 1000
Cc1cc(F)c(C(=O)NCc2ccn(C(C)C)n2)cc1NC(=O)c1cnc(N)s1 [Example 253, 2-Amino-N-[4-fluoro-2-methyl-5-[(1-propan-2-ylpyrazol-3-yl)methylcarbamoyl]phenyl]-1,3-thiazole-5-carboxamide]	–	< 100	> 1000	100 to 1000	100 to 1000
